Experimental data reported in patent publication US6562808B1, “5,11-dihydrodibenzo[b,e][1,4]oxazepine derivatives and pharmaceutical composition containing the same” (Ajinomoto Co., Inc., priority 1997, dated 2003).

Experiments:
[1] = target: calcium channel (blood vessel, thoracic aortae) (Rattus norvegicus, UniProt P22002); assay: In vitro calcium channel-antagonistic effect (blood vessel): inhibition of high potassium contraction of thoracic aorta spiral samples; assay type: cell-based, rat (male Crj:CD); conditions: 30 minute pretreatment; for inhibition at 0.1 µM: high potassium (45.0 mM KCl) contraction, 10^−7 M test compound, read-out: Inhibition rate (%) (conc.: 10^−7M)
Sequence of calcium channel (blood vessel, thoracic aortae) (P22002 whole entry): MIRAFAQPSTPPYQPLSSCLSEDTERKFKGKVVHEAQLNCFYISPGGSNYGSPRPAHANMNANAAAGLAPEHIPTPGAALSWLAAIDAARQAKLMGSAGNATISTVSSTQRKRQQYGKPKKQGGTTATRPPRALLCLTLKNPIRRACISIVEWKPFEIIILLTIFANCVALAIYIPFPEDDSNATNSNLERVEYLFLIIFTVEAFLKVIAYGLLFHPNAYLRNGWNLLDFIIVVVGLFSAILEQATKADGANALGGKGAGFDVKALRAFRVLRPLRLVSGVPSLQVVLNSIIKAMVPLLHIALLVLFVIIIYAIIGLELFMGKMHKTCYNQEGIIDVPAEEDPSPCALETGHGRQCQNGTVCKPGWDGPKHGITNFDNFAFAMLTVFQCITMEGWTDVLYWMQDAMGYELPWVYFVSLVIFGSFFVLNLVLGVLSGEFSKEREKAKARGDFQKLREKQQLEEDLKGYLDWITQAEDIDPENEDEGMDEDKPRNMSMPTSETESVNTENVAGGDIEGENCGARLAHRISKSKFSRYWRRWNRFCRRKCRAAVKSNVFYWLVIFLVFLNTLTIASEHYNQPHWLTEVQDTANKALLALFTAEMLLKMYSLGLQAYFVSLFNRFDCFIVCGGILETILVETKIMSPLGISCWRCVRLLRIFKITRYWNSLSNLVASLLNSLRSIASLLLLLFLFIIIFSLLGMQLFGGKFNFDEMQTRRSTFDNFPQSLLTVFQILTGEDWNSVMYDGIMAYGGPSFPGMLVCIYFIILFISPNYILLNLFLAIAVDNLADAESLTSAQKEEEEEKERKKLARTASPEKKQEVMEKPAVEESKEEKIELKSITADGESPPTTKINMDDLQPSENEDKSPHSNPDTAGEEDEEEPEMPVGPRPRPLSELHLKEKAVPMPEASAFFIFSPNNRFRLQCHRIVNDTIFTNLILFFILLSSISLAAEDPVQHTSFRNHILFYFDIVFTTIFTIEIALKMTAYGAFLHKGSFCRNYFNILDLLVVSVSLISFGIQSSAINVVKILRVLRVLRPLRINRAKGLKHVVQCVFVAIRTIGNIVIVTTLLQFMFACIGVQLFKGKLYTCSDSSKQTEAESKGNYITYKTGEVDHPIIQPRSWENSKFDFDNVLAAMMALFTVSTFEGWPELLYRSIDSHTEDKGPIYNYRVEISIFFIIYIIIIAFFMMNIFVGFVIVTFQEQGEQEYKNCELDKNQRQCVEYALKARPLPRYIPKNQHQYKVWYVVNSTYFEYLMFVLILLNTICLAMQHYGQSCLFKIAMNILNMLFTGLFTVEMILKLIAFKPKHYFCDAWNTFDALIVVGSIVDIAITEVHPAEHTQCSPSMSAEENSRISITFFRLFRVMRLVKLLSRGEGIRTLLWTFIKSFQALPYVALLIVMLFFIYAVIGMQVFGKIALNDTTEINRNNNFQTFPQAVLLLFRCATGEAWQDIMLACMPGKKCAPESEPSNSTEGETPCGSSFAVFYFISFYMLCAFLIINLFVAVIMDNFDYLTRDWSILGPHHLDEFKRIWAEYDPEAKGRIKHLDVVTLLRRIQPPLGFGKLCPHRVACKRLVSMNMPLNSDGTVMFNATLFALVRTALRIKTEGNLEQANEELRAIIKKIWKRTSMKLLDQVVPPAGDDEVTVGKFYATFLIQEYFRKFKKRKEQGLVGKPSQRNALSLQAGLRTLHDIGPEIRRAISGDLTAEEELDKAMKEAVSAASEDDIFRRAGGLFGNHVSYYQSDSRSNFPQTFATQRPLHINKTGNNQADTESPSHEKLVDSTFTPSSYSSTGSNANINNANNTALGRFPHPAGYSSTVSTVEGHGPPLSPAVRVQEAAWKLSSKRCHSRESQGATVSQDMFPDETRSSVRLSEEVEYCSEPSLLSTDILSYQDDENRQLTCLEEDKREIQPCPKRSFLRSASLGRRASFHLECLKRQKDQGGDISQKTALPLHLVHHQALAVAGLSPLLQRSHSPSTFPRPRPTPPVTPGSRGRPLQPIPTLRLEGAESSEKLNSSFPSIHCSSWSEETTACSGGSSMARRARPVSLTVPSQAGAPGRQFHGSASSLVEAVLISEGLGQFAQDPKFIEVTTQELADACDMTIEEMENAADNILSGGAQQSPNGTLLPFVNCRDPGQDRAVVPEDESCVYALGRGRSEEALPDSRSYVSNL
Experimental: In Vitro Calcium Channel-antagonistic Effect (Blood Vessel):
The thoracic aortae were taken out of male Crj:CD rats (8-12 weeks old) and spiral samples were prepared from them. The blood vessel samples were suspended in Tyrode's solution in which a mixed gas (95% of oxygen and 5% of carbon dioxide) was introduced at 37° C. As for the change in tension of each blood vessel, the isometry was recorded on an ink writing recorder through a transducer. The high potassium contraction was caused by changing the nutritive solution from the Tyrode's solution to a potassium-Tyrode's solution (94.6 mM of NaCl, 45.0 mM of KCl, 1.8 mM of CaCl2, 1.04 mM of MgCl2, 0.4 mM of NaH2PO4, 11.9 mM of NaHCO3, and 5.55 mM of glucose). The high potassium contraction-inhibiting effect of the test compound was determined by 30 minute pretreatment. Compound A described in European Patent No. 0404359A1 was used as a comparative substance. The results of the determination of the calcium channel antagonistic activity were given in terms of the rate of inhibition of the high calcium contraction with 10^−7 M of the test compound. In Table 1, “−” means not determined.

[2] = Determination of solubility in neutral buffer solution; assay type: physicochemical; conditions: aqueous buffer, thermodynamic from solid; 0.15 M phosphate buffer pH 7.2, room temperature, left overnight, supernatant by HPLC
Experimental: Determination of Solubility:
A test compound was suspended in 0.15 M phosphate buffer solution having pH of 7.2 at room temperature. The obtained suspension was vigorously shaken and then left to stand overnight. The insoluble compound was removed by centrifugation, and the concentration of the compound in the supernatant was determined by the high-performance liquid chromatography.

[3] = target: calcium channel (ileum) (Rattus norvegicus, UniProt P22002); assay: In vitro calcium channel-antagonistic effect (ileum): inhibition of high potassium contraction of ileum samples; assay type: cell-based, rat (male Crj:CD); conditions: 30 minute pretreatment; for inhibition at 0.1 µM: high potassium (45.0 mM KCl) contraction, 10^−7 M test compound, read-out: Inhibition rate (%) (conc.: 10^−7M)
Sequence of calcium channel (ileum) (P22002 whole entry): as above
Experimental: In Vitro Calcium Channel-antagonistic Effect (Ileum):
The ileum was taken out of male Crj:CD rats (8-12 weeks old) at a position of 3 cm distant from the ileocecal region. The ileum samples were suspended in Tyrode's solution in which a mixed gas (95% of oxygen and 5% of carbon dioxide) was introduced at 37° C. As for the change in tension of the ileum, the isometry was recorded on a ink writing recorder through a transducer. The high potassium contraction was caused by changing the nutritive solution from the Tyrode's solution to a potassium-Tyrode's solution (94.6 mM of NaCl, 45.0 mM of KCl, 1.8 mM of CaCl2, 1.04 mM of MgCl2, 0.4 mM of NaH2PO4, 11.9 mM of NaHCO3, and 5.55 mM of glucose). The high potassium contraction-inhibiting effect of the test compound was determined by 30 minute pretreatment. Compound A described in European Patent No. 0404359A1 was used as a comparative substance. The results of the determination of the calcium channel antagonistic activity were given in terms of the rate of inhibition of the high calcium contraction with 10^−7 M of the test compound. In Table 2, “−” means not determined.

| Compound | melting point [°C] | inhibition at 0.1 µM [1] [%] | solubility [2] [µg/mL] | inhibition at 0.1 µM [3] [%] | IC50 ([1]; high potassium contraction, read-out: IC50 (nM), concentration for 50% contraction inhibition) [nM] | IC50 ([3]; high potassium contraction, read-out: IC50(nM), concentration for 50% contraction inhibition) [nM] |
| --- | --- | --- | --- | --- | --- | --- |
| CCN(CC)c1ccc(CCN2CCC[C@@H]2CN2c3ccccc3COc3ccccc32)cc1.Cl.Cl [Example 6, (R)-5,11-Dihydro-5-[1-[2-(4-diethylaminophenyl)ethyl]-2-pyrrolidinylmethyl]dibenzo[b,e][1,4]oxazepine Dihydrochloride] | 143 to 146 | 24 | 638 | 51 |  |  |
| CN(C)c1cccc(CCN2CCC[C@@H]2CN2c3ccccc3COc3ccccc32)c1.Cl.Cl [Example 19, (R)-5,11-Dihydro-5-[1-[2-(3-dimethylaminophenyl)ethyl]2-pyrrolidinylmethyl)dibenzo[b,e][1,4]oxazepine Dihydrochloride] | 170 to 172 |  |  |  |  |  |
| COc1ccc(CCCN2CCC[C@@H]2CN2c3ccccc3COc3ccccc32)cc1.Cl [Example 24, (R)-5,11-Dihydro-5-[1-[3-(4-methoxyphenyl)propane-1-yl]-2-pyrrolidinylmethyl]dibenzo[b,e][1,4]oxazepine Hydrochloride] | 172 to 174 | 31 | 49 | 67 |  |  |
| CN(C)c1cccc(CCCN2CCC[C@@H]2CN2c3ccccc3COc3ccccc32)c1.Cl.Cl [Example 38, (R)-5,11-Dihydro-5-[1-[3-(3-dimethylaminophenyl)propane-1-yl]-2-pyrrolidinylmethyl]dibenzo[b,e][1,4]oxazepine Dihydrochloride] | 120 to 123 | 25 | 41 | 52 |  |  |
| Cl.O[C@H](CCN1CCC[C@@H]1CN1c2ccccc2COc2ccccc21)c1ccccc1 | 179 to 182 |  |  |  |  |  |
| CNc1cccc(CCN2CCC[C@@H]2CN2c3ccccc3COc3ccccc32)c1.Cl.Cl [Example 14, (R)-5,11-Dihydro-5-[1-[2-(3-methylaminophenyl)ethyl]-2-pyrrolidinylmethyl]dibenzo[b,e][1,4]oxazepine Dihydrochloride] | 179 to 181 | 41 | 56 | 76 |  |  |
| CN(C)c1cccc(CCN2CCC[C@@H]2CN2c3ccccc3COc3ccccc32)c1.Cl.Cl [Example 10, (R)-5,11-Dihydro-5-[1-[2-(3-dimethylaminophenyl)ethyl]-2-pyrrolidinylmethyl]dibenzo[b,e][1,4]oxazepine Dihydrochloride] | 125 to 128 | 51 | 30 | 87 |  |  |
| COc1ccc(CCN2CCCC2CN2c3ccccc3CSc3ccccc32)cc1.O=C(O)/C=C\C(=O)O (stereo not drawn) [Compound A, reference compound] |  |  | 13 |  | 530 | 120 |
| CN(C)c1ccc(CCN2CCC[C@@H]2CN2c3ccccc3COc3ccccc32)cc1.Cl.Cl [Example 2, (R)-5,11-Dihydro-5-[1-[2-(4-dimethylaminophenyl)ethyl]-2-pyrrolidinylmethyl]dibenzo[b,e][1,4]oxazepine Dihydrochloride] | 164 to 169 | 12 | 36 | 62 |  |  |
| COc1ccc(C=CCN2CCC[C@@H]2CN2c3ccccc3COc3ccccc32)cc1.Cl | 120 to 122 |  |  |  |  |  |

Second part, led by results:

| melting point [°C] | Compound | inhibition at 0.1 µM [1] [%] | solubility [2] [µg/mL] | inhibition at 0.1 µM [3] [%] | IC50 ([1]; high potassium contraction, read-out: IC50 (nM), concentration for 50% contraction inhibition) [nM] | IC50 ([3]; high potassium contraction, read-out: IC50(nM), concentration for 50% contraction inhibition) [nM] |
| --- | --- | --- | --- | --- | --- | --- |
| 168 to 172 | Cl.Cl.Nc1ccccc1CCN1CCC[C@@H]1CN1c2ccccc2COc2ccccc21 |  |  |  |  |  |
| 141 to 144 | COc1ccc(CCN2CCC[C@@H]2CN2c3ccccc3COc3ccccc32)cc1N(C)C.Cl.Cl |  |  |  |  |  |
| 149 to 152 | Cl.Cl.Nc1cccc(CCN2CCC[C@@H]2CN2c3ccccc3COc3ccccc32)c1 [Example 13, (R)-5,11-Dihydro-5-[1-[2-(3-aminophenyl)ethyl]-2-pyrrolidinylmethyl]dibenzo[b,e][1,4]oxazepine Dihydrochloride] |  | 418 |  |  |  |
| 149 to 150 | Cl.O[C@@H](CCN1CCC[C@@H]1CN1c2ccccc2COc2ccccc21)c1ccccc1 |  |  |  |  |  |
| 176 to 180 | Cl.Cl.Nc1ccc(CCN2CCC[C@@H]2CN2c3ccccc3COc3ccccc32)cc1 |  |  |  |  |  |
| 134 to 137 | CNc1ccc(CCN2CCC[C@@H]2CN2c3ccccc3COc3ccccc32)cc1.Cl.Cl [Example 8, (R)-5,11-Dihydro-5-[1-[2-(4-methylaminophenyl)ethyl]-2-pyrrolidinylmethyl]dibenzo[b,e][1,4]oxazepine Dihydrochloride] |  | 116 |  |  |  |
| 186 to 191 | COc1ccc(OCCN2CCC[C@@H]2CN2c3ccccc3COc3ccccc32)cc1.Cl |  |  |  |  |  |
